How the values were obtained:
KPC-2 = target: T1, KPC-2 (Klebsiella pneumoniae, UniProt Q9F663); test: β-lactamase inhibitory activity, nitrocefin hydrolysis; format: biochemical
T1 construct: made in house; host or cells: E. coli

[1] = system: E. coli 190317 (TEM-1, SHV-12, CTX-M-15, OXA-1); test: MIC broth microdilution, alone and synergy with ceftazidime; conditions: strain 190317; compound fixed at 4 μg/mL
CTX-M-15 = target: T2, CTX-M-15 (Escherichia coli, UniProt Q9EXV5); test: β-lactamase inhibitory activity, nitrocefin hydrolysis; format: biochemical
T2 construct: made in house; host or cells: E. coli
Procedure: (§1) Enzyme activity was monitored by spectrophotometric measurement of nitrocefin (NCF-TOKU-E, N005) hydrolysis at 485 nm, at room temperature and in assay buffer A: 100 mM Phosphate pH7, 2% glycerol and 0.1 mg/mL Bovine serum albumin (Sigma, B4287). […] To a transparent polystyrene plate (Corning, 3628) were added in each well 5 μL DMSO or inhibitor dilutions in DMSO and 80 μL enzyme in buffer A. Plates were immediately read at 485 nm in a microplate spectrophotometer (BioTek, PowerWave HT) to enable background subtraction. After 30 min of pre-incubation at room temperature, 15 μL of NCF (200 μM final) were finally added in each well. Final enzyme concentrations were 0.1 nM (TEM-1), 0.075 nM (SHV-1), 0.4 nM (CTX-M-15), 1 nM (KPC-2), 0.2 nM (P99 AmpC), 0.2 nM (CMY-37), 0.4 nM (AmpC P. aeruginosa), 0.2 nM (OXA-1), 1.2 nM (OXA-11), 0.4 nM (OXA-15) and 0.3 nM (OXA-48). After 20 min incubation at room temperature, plates were once again read at 485 nm. Enzyme activity was obtained by subtracting the final signal by the background, and was converted to enzyme inhibition using non inhibited wells. IC50 curves were fitted to a classical Langmuir equilibrium model with Hill slope using XLFIT (IDBS).

[2] = system: E. coli UFR74 (SHV-1, DHA-1); test: MIC broth microdilution, alone and synergy with ceftazidime
[3] = system: E. coli UFR52 (TEM-1, SHV-12, IMP-8); test: as above
OXA-11 = target: T3, OXA-11 (Pseudomonas aeruginosa, UniProt Q06778); test: β-lactamase inhibitory activity, nitrocefin hydrolysis; format: biochemical
T3 construct: made in house; host or cells: E. coli
Procedure: as §1

[4] = system: K. oxytoca UFR21 (TEM-1, CTX-M-15, OXA-48); test: MIC broth microdilution, alone and synergy with ceftazidime
[5] = system: K. pneumoniae 6299 (TEM-1, SHV-11, OXA-163); test: as above
[6] = system: E. coli UFR61O (TEM-1, KPC-2); test: as above; conditions: strain UFR61O; compound fixed at 4 μg/mL
[7] = system: E. coli 131119 (TEM-1, OXA-48); test: as above; conditions: strain 131119; compound fixed at 4 μg/mL
[8] = system: K. pneumoniae 200047 (TEM-1, SHV-32, CTX-M-15, OXA-1); test: as above
[9] = system: K. pneumoniae UFR24 (TEM-1, SHV-2, SHV-11, OXA-1, OXA-48, OXA-47); test: as above; conditions: strain UFR24; compound fixed at 4 μg/mL
E. coli RGN238 (OXA-1) = test: as above
[10] = system: E. cloacae UFR85 (TEM-1, CTX-M-15, derepressed AmpC); test: as above; conditions: strain UFR85; compound fixed at 4 μg/mL
[11] = system: E. cloacae UFR38 (CTX-M-15, NDM-1); test: as above
[12] = system: K. pneumoniae BAA-1898 (TEM-1, SHV-11, SHV-12, KPC-2); test: microbe, parasite or virus in culture; format: cell-based
[13] = system: E. coli UFR32 (TEM-1, VEB-1, OXA-10); test: MIC broth microdilution, alone and synergy with ceftazidime; conditions: strain UFR32; compound fixed at 4 μg/mL
[14] = system: P. aeruginosa CIP105250 (OXA-15); test: MIC broth microdilution, compounds alone; conditions: Pseudomonas aeruginosa, CIP105250, read-out: MIC compounds of the invention alone
TEM-1 = target: T4, TEM-1 (Escherichia coli, UniProt P62593); test: β-lactamase inhibitory activity, nitrocefin hydrolysis; format: biochemical; conditions: class (A); 30 min pre-incubation; nitrocefin 200 μM
T4 construct: made in house; host or cells: E. coli
Procedure: as §1

SHV-1 = target: T5, SHV-1 (Klebsiella pneumoniae, UniProt P0AD64); test: as above; format: biochemical
T5 construct: made in house; host or cells: E. coli
Procedure: as §1

[15] = system: K. pneumoniae 160143 (TEM-1, SHV-1, CTX-M-15, KPC-2, OXA-1); test: MIC broth microdilution, alone and synergy with ceftazidime
[16] = system: P. aeruginosa CIP107051 (TEM-24); test: as above
OXA-48 = target: T6, OXA-48 (Klebsiella pneumoniae, UniProt Q6XEC0); test: β-lactamase inhibitory activity, nitrocefin hydrolysis; format: biochemical
T6 construct: made in house; host or cells: E. coli
Procedure: as §1

[17] = system: K. pneumoniae UFR77 (CMY-2); test: MIC broth microdilution, alone and synergy with ceftazidime
[18] = system: E. coli UFR18 (CTX-M-15, OXA-204); test: as above
[19] = system: E. cloacae UFR70 (TEM-1, CTX-M-15, CMY-2, OXA-1, Porin loss); test: as above
OXA-1 = target: T7, OXA-1 (Escherichia coli, UniProt P13661); test: β-lactamase inhibitory activity, nitrocefin hydrolysis; format: biochemical
T7 construct: made in house; host or cells: E. coli
Procedure: as §1

[20] = system: K. pneumoniae UFR68 (TEM-1, SHV-11, CTX-M-15, KPC-3); test: MIC broth microdilution, alone and synergy with ceftazidime
P99 AmpC = target: T8, P99 AmpC (Enterobacter cloacae, UniProt P05364); test: β-lactamase inhibitory activity, nitrocefin hydrolysis; format: biochemical; conditions: class (C); 30 min pre-incubation; nitrocefin 200 μM
T8 construct: made in house; host or cells: E. coli
Procedure: as §1

[21] = Escherichia coli, read-out: MIC compounds of the invention alone
[22] = Klebsiella pneumoniae, read-out: MIC compounds of the invention alone
[23] = Enterobacter cloacae, read-out: MIC compounds of the invention alone

T6 sequence (Q6XEC0 23-265 limits assumed): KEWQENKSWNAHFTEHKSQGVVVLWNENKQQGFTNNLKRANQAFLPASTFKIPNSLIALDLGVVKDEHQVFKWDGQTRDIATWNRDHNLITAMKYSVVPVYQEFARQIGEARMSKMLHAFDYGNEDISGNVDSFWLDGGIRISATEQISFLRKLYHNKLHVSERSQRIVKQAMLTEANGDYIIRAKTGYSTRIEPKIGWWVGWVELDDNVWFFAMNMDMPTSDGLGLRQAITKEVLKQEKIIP
T8 sequence (P05364 21-381): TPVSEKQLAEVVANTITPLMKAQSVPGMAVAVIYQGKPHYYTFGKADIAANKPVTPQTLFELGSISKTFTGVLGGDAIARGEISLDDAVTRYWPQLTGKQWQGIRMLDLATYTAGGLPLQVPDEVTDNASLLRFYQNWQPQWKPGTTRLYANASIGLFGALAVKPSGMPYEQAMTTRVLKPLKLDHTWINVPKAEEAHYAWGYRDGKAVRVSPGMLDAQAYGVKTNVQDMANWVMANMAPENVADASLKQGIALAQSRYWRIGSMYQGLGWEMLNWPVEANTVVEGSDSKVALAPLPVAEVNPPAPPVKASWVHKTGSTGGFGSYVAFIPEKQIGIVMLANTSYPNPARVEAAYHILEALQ
T5 sequence (P0AD64 22-286): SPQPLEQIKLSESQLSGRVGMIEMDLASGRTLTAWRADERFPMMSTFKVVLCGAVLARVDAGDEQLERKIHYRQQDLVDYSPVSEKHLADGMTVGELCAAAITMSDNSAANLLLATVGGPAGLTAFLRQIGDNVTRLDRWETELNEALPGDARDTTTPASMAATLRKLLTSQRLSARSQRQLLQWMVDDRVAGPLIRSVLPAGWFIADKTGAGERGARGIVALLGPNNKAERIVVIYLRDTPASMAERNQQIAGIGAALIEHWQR
T4 sequence (P62593 24-286 limits assumed): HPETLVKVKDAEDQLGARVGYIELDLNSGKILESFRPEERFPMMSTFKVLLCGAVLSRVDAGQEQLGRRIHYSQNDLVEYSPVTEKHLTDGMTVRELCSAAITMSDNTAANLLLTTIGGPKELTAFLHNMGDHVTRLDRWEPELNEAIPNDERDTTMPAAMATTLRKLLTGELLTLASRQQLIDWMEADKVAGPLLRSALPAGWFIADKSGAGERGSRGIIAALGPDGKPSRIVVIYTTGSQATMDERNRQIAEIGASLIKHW
T1 sequence (Q9F663 25-293 limits assumed): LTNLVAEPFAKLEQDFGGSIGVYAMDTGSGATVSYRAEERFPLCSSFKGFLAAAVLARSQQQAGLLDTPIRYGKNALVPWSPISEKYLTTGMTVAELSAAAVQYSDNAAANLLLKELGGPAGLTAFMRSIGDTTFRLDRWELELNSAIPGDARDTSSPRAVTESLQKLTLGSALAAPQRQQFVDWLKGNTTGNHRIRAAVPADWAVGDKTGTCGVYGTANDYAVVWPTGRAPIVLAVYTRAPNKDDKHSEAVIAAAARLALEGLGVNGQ
T3 sequence (Q06778 21-266): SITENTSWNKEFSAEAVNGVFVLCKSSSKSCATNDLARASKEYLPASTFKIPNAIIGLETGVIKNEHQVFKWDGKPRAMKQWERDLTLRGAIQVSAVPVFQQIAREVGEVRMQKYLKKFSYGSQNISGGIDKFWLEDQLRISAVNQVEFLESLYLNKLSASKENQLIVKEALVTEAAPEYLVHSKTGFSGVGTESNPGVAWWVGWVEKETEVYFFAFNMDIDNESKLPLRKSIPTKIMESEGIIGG
T7 sequence (P13661 26-276): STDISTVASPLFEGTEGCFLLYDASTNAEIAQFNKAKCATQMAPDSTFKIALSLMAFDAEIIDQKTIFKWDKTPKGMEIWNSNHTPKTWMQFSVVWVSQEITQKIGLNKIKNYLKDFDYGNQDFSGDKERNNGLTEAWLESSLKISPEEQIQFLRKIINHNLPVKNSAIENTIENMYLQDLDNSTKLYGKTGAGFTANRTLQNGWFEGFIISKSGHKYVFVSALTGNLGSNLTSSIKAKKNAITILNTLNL
T2 sequence (Q9EXV5 entry or part of it): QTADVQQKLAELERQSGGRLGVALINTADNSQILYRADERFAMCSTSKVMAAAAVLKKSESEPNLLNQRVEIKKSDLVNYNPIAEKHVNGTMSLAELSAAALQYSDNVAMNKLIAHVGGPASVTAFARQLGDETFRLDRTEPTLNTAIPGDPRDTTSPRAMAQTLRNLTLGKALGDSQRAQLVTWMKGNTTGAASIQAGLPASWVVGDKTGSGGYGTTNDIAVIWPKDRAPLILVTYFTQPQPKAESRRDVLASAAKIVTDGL

O=C1N2Cc3c(sc(=O)n3CCO)C(C2)N1OS(=O)(=O)[O-].[Na+] (stereo not shown) [Example 5, Sodium [5-(2-hydroxyethyl)-4,9-dioxo-3-thia-5,8,10-triaza-tricyclo[6.2.1.0^2.6]undec-2(6)-en-10-yl) sulfate]
IC50 (KPC-2): 1.7 nM | MIC of CAZ in combination with compound at 4 μg/mL [1]: <0.25 µg/mL | IC50 (CTX-M-15): 0.68 nM | MIC [2, 21]: 4 µg/mL | MIC of CAZ in combination with compound at 4 μg/mL ([2]; strain UFR74, compound fixed at 4 μg/mL): <0.25 µg/mL | MIC [3, 21]: 0.5 µg/mL | MIC of CAZ in combination with compound at 4 μg/mL ([3]; strain UFR52, compound fixed at 4 μg/mL): <0.25 µg/mL | IC50 (OXA-11): 31 nM | MIC ([4]; Klebsiella oxytoca, read-out: MIC compounds of the invention alone): 4 µg/mL | MIC of CAZ in combination with compound at 4 μg/mL ([4]; strain UFR21, compound fixed at 4 μg/mL): <0.25 µg/mL | MIC [5, 22]: 8 µg/mL | MIC of CAZ in combination with compound at 4 μg/mL ([5]; strain 6299, compound fixed at 4 μg/mL): ≤0.125 µg/mL | MIC of CAZ in combination with compound at 4 μg/mL [6]: <0.25 µg/mL | MIC of CAZ in combination with compound at 4 μg/mL [7]: <0.25 µg/mL | MIC [8, 22]: 2 µg/mL | MIC of CAZ in combination with compound at 4 μg/mL ([8]; strain 200047, compound fixed at 4 μg/mL): <0.25 µg/mL | MIC of CAZ in combination with compound at 4 μg/mL [9]: <0.25 µg/mL | MIC (E. coli RGN238 (OXA-1); [21]): 1 µg/mL | MIC of CAZ in combination with compound at 4 μg/mL (E. coli RGN238 (OXA-1); strain RGN238, compound fixed at 4 μg/mL): <0.25 µg/mL | MIC of CAZ in combination with compound at 4 μg/mL [10]: <0.25 µg/mL | MIC [11, 23]: 2 µg/mL | MIC of CAZ in combination with compound at 4 μg/mL ([11]; strain UFR38, compound fixed at 4 μg/mL): <0.25 µg/mL | MIC ([12]; Klebsiella pneumoniae, BAA1898, read-out: MIC compounds of the invention alone): 8 µg/mL | MIC of CAZ in combination with compound at 4 μg/mL ([12]; strain BAA-1898, compound fixed at 4 μg/mL): 4 µg/mL | MIC of CAZ in combination with compound at 4 μg/mL [13]: <0.25 µg/mL | MIC [14]: > 32 µg/mL | IC50 (TEM-1): 1.8 nM | IC50 (SHV-1): 6 nM | MIC [15, 22]: 8 µg/mL | MIC of CAZ in combination with compound at 4 μg/mL ([15]; strain 160143, compound fixed at 4 μg/mL): <0.25 µg/mL | MIC ([16]; Pseudomonas aeruginosa, CIP107051, read-out: MIC compounds of the invention alone): > 32 µg/mL | MIC of CAZ in combination with compound at 4 μg/mL ([16]; strain CIP107051, compound fixed at 4 μg/mL): 4 µg/mL | IC50 (OXA-48): 0.79 nM | MIC [17, 22]: 4 µg/mL | MIC of CAZ in combination with compound at 4 μg/mL ([17]; strain UFR77, compound fixed at 4 μg/mL): <0.25 µg/mL | MIC [18, 21]: 2 µg/mL | MIC of CAZ in combination with compound at 4 μg/mL ([18]; strain UFR18, compound fixed at 4 μg/mL): <0.25 µg/mL | MIC [19, 23]: 1 µg/mL | MIC of CAZ in combination with compound at 4 μg/mL ([19]; strain UFR70, compound fixed at 4 μg/mL): <0.25 µg/mL | IC50 (OXA-1): 310 nM | MIC [20, 22]: 8 µg/mL | MIC of CAZ in combination with compound at 4 μg/mL ([20]; strain UFR68, compound fixed at 4 μg/mL): ≤0.25 µg/mL | IC50 (P99 AmpC): 24 nM

Reference: patent publication US10501481B2, “Heterocyclic compounds and their use in preventing or treating bacterial infections” (priority 2015, dated 2019)
